Series [1] is described as follows: Isothermal titration calorimetry with POPC LUVs containing 10% ergosterol. The format is binding. Particulars: ITC; for Ergosterol binding (net exotherm vs sterol-free LUVs): result in words. Here is the method:
(§1) In an optimized isothermal titration calorimetry (ITC)-based assay, an aqueous solution of AmB was titrated with a suspension of large unilamellar vesicles (LUVs) comprised of only 1-palmitoyl-2-oleoyl-sn-glycero-3-phosphocholine (POPC), and the net exotherm was recorded. The titration was repeated using POPC LUVs containing 10% ergosterol. […] The titration was repeated using C2′epiAmB. […] The ITC assay was also conducted with cholesterol in place of ergosterol.
(§2) Experiments were performed using a NanoITC isothermal titration calorimeter (TA Instruments, Wilmington, Del.). Solutions of the compounds to be tested were prepared by diluting a 60.0 mM stock solution of the compound in DMSO to 600 μM with K buffer (5.0 mM HEPES/KHEPES, pH=7.4). The final DMSO concentration in the solution was 1% v/v. Large unilamellar vesicles comprised of only 1-palmitoyl-2-oleoyl-sn-glycero-3-phosphocholine (POPC LUVs) were prepared and phosphorus and ergosterol content was quantified as described below. The LUV solutions were diluted with buffer and DMSO to give a final phospholipid concentration of 12.0 mM in a 1% DMSO/K buffer solution. Immediately prior to use, all solutions were incubated at 37° C. for 30 minutes and degassed under vacuum at 37° C. for 10 minutes. The reference cell of the instrument (volume=0.190 mL) was filled with a solution of 1% v/v DMSO/K buffer.
Palmitoyl oleoyl phosphatidylcholine (POPC) was obtained as a 20 mg/mL solution in CHCl3 from Avanti Polar Lipids (Alabaster, Ala.) and was stored at −20° C. under an atmosphere of dry argon and used within 1 month. A 4 mg/mL solution of ergosterol in CHCl3 was prepared monthly and stored at 4° C. under an atmosphere of dry argon. Prior to preparing a lipid film, the solutions were warmed to ambient temperature to prevent condensation from contaminating the solutions. A 13×100 mm test tube was charged with 800 μL POPC and 230 μL of the ergosterol solution. For cholesterol-containing liposomes, a 13×100 mm test tube was charged with 800 μL POPC and 224 μL of the […] solution. […]
Background: Isothermal titration calorimetry measures the heat released or taken up as one component is titrated into another.

The test system of series [2] is primary human renal proximal tubule epithelial cells. In words: WST-8 cell proliferation assay on primary RPTECs. The format is cell-based. Particulars: concentration causing 90% loss of cell viability of primary human RPTECs, 24 hours.
Protocol: Primary human renal proximal tubule epithelial cells (RPTECs) were purchased from ATCC (Manassas, Va.) and immediately cultured upon receipt. Complete growth media was prepared using renal epithelial cell basal medium (ATCC, PCS-400-030), renal epithelial cell growth kit (ATCC, PCS-400-040), and penicillin-streptomycin (10 units/mL and 10 μg/mL). Complete media was stored at 4° C. in the dark and used within 28 days. Primary RPTECs were grown in CO2 incubator at 37° C. with an atmosphere of 95% air/5% CO2.
WST-8 cell proliferation assay kit (10010199) was purchased from Cayman Chemical Company (Ann Arbor, Mich.) and stored at −20° C. and used within 6 months of receipt. WST-8 reagent and electron mediator solution were thawed and mixed to prepare the WST-8 reagent solution. The solution was stored at −20° C. and used within one week.
A suspension of primary RPTECs in complete growth media was brought to a concentration of 1×10^5 cells/mL. A 96-well plate was seeded with 99 μL of the cell suspension and incubated at 37° C. with an atmosphere of 95% air/5% CO2 for 3 hours. Positive and negative controls were prepared by seeding with 100 μL of the cell suspension or 100 μL of the complete media. […] Following incubation, the 96-well plate was mixed in a shaking incubator at 200 rpm for 1 minute and absorbances were read at 450 nm using a Biotek H1 Synergy Hybrid Reader (Winooski, Vt.). […]
For the next series, the system named is healthy mice. In words: Acute toxicity, single intravenous administration to healthy mice. The format is in vivo. Particulars: single i.v. On the procedure: In a separate experiment, acute toxicity was determined by single intravenous administration of AmB or C2′epiAmB to healthy mice, followed by monitoring for lethality.
The test system of series [3] is human red blood cells. In words: Minimum hemolysis concentration (MHC) assay. Particulars: concentration causing 90% hemolysis of human red blood cells, 37° C., 2 hours.
Protocol: (§3) Whole human blood (sodium heparin) was purchased from Bioreclamation LLC (Westbury, N.Y.) and stored at 4° C. and used within two days of receipt. To a 2.0 mL Eppendorf tube, 1 mL of whole human blood was added and centrifuged at 10,000 g for 2 minutes. The supernatant was removed and the erythrocyte pellet was washed with 1 mL of sterile saline and centrifuged at 10,000 g for 2 minutes. The saline wash was repeated for a total of three washes. The erythrocyte pellet was suspended in 1 mL of RBC buffer (10 mM NaH2PO4, 150 mM NaCl, 1 mM MgCl2, pH 7.4) to form the erythrocyte stock suspension.
(§4) Compounds were prepared as 1.03 min (AmB) or 12.8 min (C2′epiAmB) stock solutions in DMSO and serially diluted to the following concentrations with DMSO: 7689, 5126, 2563, 2050, 1538, 1025, 769, 513, 384, 256, 205, 154, 103, 77, 51, 26 μM. […] Positive and negative controls were prepared by adding 1 μL of DMSO to MilliQ water or RBC buffer, respectively to 0.2 mL PCR tube. To each PCR tube, 0.63 μL of the erythrocyte stock suspension was added and mixed by inversion. The samples were incubated at 37° C. for 2 hours. The samples were mixed by inversion and centrifuged at 10,000 g for 2 minutes. […] Absorbances were read at 540 nm using a Biotek H1 Synergy Hybrid Reader (Winooski, Vt.). […]
(§5) Percent hemolysis was determined according to the following equation: […]
Series [4] is described as follows: Isothermal titration calorimetry with POPC LUVs containing 10% cholesterol. Particulars: ITC. The format is binding. Here is the method: as §1
as §2, with “buffer. […]” for “buffer.”

Series [5] in a line: Isothermal titration calorimetry with sterol-free POPC LUVs. The format is binding. Particulars: ITC, no sterol (POPC LUVs), 600 μM compound, 25° C. Here is the method:
as §1
as §2, with “buffer. […]” for “buffer.”

The next series has as its system S. cerevisiae. In words: Broth microdilution MIC assay, S. cerevisiae. The format is cell-based. Particulars: Saccharomyces cerevisiae, 30° C., 24 hours, no visible growth. A general note: Broth dilution looks for growth in wells or tubes with falling amounts of substance.
The subject of series [6] is C. albicans. In words: Broth microdilution MIC assay, C. albicans. Particulars: Candida albicans, 37° C., 24 hours, no visible growth. The format is cell-based.
Protocol: C. albicans was cultured in a similar manner to S. cerevisiae except both liquid and solid cultures were incubated at 37° C.
(§6) The protocol for the broth microdilution assay was adapted from the Clinical and Laboratory Standards Institute document M27-A2. […] 50 mL of YPD media was inoculated and incubated overnight at either 30° C. (S. cerevisiae) or 37° C. (C. albicans) in a shaker incubator. The cell suspension was then diluted with YPD to an OD600 of 0.10 (˜5×10^5 cfu/mL) as measured by a Shimadzu (Kyoto, Japan) PharmaSpec UV-1700 UV/Vis spectrophotometer. The solution was diluted 10-fold with YPD, and 195 μL aliquots of the dilute cell suspension were added to sterile Falcon (Franklin Lakes, N.J.) Microtest 96-well plates in triplicate. Compounds may be prepared as 400 μM stock solutions in DMSO and serially diluted to the following concentrations with DMSO: 1600, 1200, 800, 400, 320, 240, 200, 160, 120, 80, 40, 20, 10 and 5 μM. 5 μL aliquots of each solution were added to the 96-well plate in triplicate, with each column representing a different concentration of the test compound. […] This 40-fold dilution gave the following final concentrations: 50, 40, 30, 20, 10, 8, 6, 4, 1, 0.5, 0.25 and 0.125 μM. The plates were covered and incubated at 30° C. (S. cerevisiae) or 37° C. (C. albicans) for 24 hours prior to analysis. […]
Series [7] has as its system C. albicans. In words: Mouse model of disseminated candidiasis. The format is in vivo. Particulars: neutropenic mice, single i.p. 16 mg/kg 2 hours post infection, kidneys at 24 hours post infection. On the procedure: The antifungal efficacy of C2′epiAmB was tested in a mouse model of disseminated candidiasis. In this experiment neutropenic mice were infected with C. albicans via their tail veins, and then 2 hours post infection the mice were treated with a single intraperitoneal injection of 16 mg/kg AmB or C2′epiAmB. Then at 24 hours post infection the mice were sacrificed, and the fungal burden present in their kidneys was quantified.

Series [8] deals with human red blood cells. Particulars: 2 h, pH 7.4.
Protocol: as §3, §4, §5

Each structure is given as a SMILES string. In brackets after ≈: the same amount, converted by molar mass. Read-outs that look alike come from different tables or passages of the source.

Protocol for S. cerevisiae: Liquid cultures were incubated at 30° C. on a rotary shaker and solid cultures were maintained at 30° C. in an incubator.
as §6

Turning to `C[C@@H]1[C@H](O)[C@@H](C)/C=C/C=C/C=C/C=C/C=C/C=C/C=C/[C@H](O[C@@H]2O[C@H](C)[C@@H](O)[C@H](N)[C@@H]2O)C[C@@H]2O[C@](O)(C[C@@H](O)C[C@@H](O)[C@H](O)CC[C@@H](O)C[C@@H](O)CC(=O)O[C@H]1C)C[C@H](O)[C@H]2C(=O)O` [AmB, amphotericin B], the “Ergosterol binding (net exotherm vs sterol-free LUVs)” value in series [1] was “significant increase in net exotherm”. The “minimum toxic concentration (MTC)” value in series [2] came to 2.4 µM. For the same compound, the Lethality entry in the series on healthy mice (4 mg/kg) is listed as “died within seconds”. The “minimum hemolytic concentration (MHC)” value with human red blood cells [3] stood at 8.5 µM.

For the compound `C[C@@H]1[C@H](O)[C@@H](C)/C=C/C=C/C=C/C=C/C=C/C=C/C=C/[C@H](O[C@@H]2O[C@H](C)[C@@H](O)[C@H](N)[C@H]2O)C[C@@H]2O[C@](O)(C[C@@H](O)C[C@@H](O)[C@H](O)CC[C@@H](O)C[C@@H](O)CC(=O)O[C@H]1C)C[C@H](O)[C@H]2C(=O)O` [C2′epiAmB], the Total exotherm is -15.24 ± 1.66 µcal in series [1] (POPC LUVs with 10% ergosterol, 600 μM compound, 25° C.); -6.43 ± 2.80 µcal in series [4] (POPC LUVs with 10% cholesterol, 600 μM compound, 25° C.); -6.70 ± 0.11 µcal in series [5]. For the same compound, the “Ergosterol binding (net exotherm vs sterol-free LUVs)” value in [1] is on record as “binds to ergosterol”. Further, in [4] (result in words), the Cholesterol binding entry is recorded as “not found to bind to cholesterol”. Further, the MIC in the series on S. cerevisiae and against C. albicans [6] was 2 µM (≈ 1.85 µg/mL) in each case. Further, the “minimum toxic concentration (MTC)” value in series [2] is “no evidence of toxicity up to the limits of solubility”. For the same compound, in the series on C. albicans [7], the “Reduction of fungal burden relative to AmB” value worked out at 0.5 log units. Also, in the series with C. albicans [7] (result in words), the “Reduction of fungal burden in kidneys compared with AmB” value is given as “more effective than AmB”. Further, the Lethality result in the series on healthy mice (up to 16 mg/kg) was “no deaths observed”. Besides, in the series with human red blood cells [8], the “minimum hemolytic concentration (MHC)” value is over 500 µM.

A word on the MIC: it is the lowest concentration found to suppress growth.

These data come from patent US10683318B2, “Scalable synthesis of reduced toxicity derivative of amphotericin B” (priority 2014, dated 2020).
